Assay results taken from PMC10850501 (Nature Communications, 2024).
Entries after “also recorded” stand apart in the source; their conditions may differ. Peptide text beside a SMILES is read from it.

How the values were obtained:
[1] = Intranasal repeat dose tolerability; type: in vivo, mouse (female C57BL/6); conditions: 25µL / nostril x 2 daily for 10 days in mice; histopathology H&E, MT
Procedure: Female C57BL/6 mice (15–20 g, 8–12 weeks old) were used for intranasal dosing of the peptide. As mentioned previously, 25 µl of hydrogels were injected into each of the nasal cavities twice daily at an interval of 8 hours for 10 days consecutively. The organs were harvested at the final time point, and sectioning was performed for histological evaluation. The plasma was also collected for quantifying peptide clearance in the bloodstream of the animal model.

[2] = Stability testing by HPLC / LC-MS; type: physicochemical
Procedure: Chromatographic analyses were performed on an analytical high-pressure liquid chromatography system (HPLC) with MassLynx software (Version 4.1). Runs were carried out on a Zorbax C3 column (5 µm, 150 mm × 4.6 mm) with a 1.0 mL/min flow rate. The mobile phase A was 0.1% trifluoroacetic acid in MilliQ water and mobile phase B was 0.1% trifluoroacetic acid in acetonitrile. Gradients started with mobile phase A at 75% and ran at a 1% ramp to 65% mobile phase B. Samples were diluted using 3:7 ACN:MilliQ water to a concentration of 1.0 mg/mL and then passed through a 0.22 μm syringe filter before injecting 30 μL of the sample. The column and autosampler were maintained at 40 °C and 25 °C, respectively. A Waters 2487 UV detector monitored 215 nm, and mass spectra were collected from 50 to 3000 AMU. The capillary voltage was 3.00 kV, cone voltage was 30.00 V, extractor voltage was 3.00 V, RF lens voltage was 0.1 V, source temperature was 100 °C, cone gas flow was 50.0 L/h, and desolvation gas flow was 500 L/h[30],[88] for the electrospray source.
[…] The stability of peptide samples was then measured using HPLC[87].

[3] = Daily repeat IV dosing, 10 days (chronic PK/safety); type: in vivo, rat (female Wistar)
Procedure: (§1) Female Wistar rats (225–250 g, 8–12 weeks old) were observed and acclimatized for 2 weeks prior to running the studies. They were housed in a controlled environment with temperature at […] and 40–70% humidity. They were kept in an alternating 12-hour light/dark cycle, and food, and water was provided as pellets ad libitum. Female Wistar Rats were used for the pharmacokinetics and the drug clearance analysis from the blood. The two hydrogels (ESBP2 and ESBP3) at 10 mg/ml concentration were injected into the rats via the lateral tail vein. For subcutaneous implants, the substance was injected between the shoulder blades and above the lumbar vertebrae, 200 μL each, using a 25-gauge needle. The hydrogel bolus was prepared with 0.9% saline and was injected within 1–2 minutes. The volume injected was approximately 1% of the total body weight of the rat, which was calculated prior to the dosing. The initial blood draw was performed for baseline, and the subsequent blood collection was performed from the lateral vein using 25 g butterfly needles.
Female Wistar rats (225–250 g, 8–12 weeks old) were weighed and repeatedly dosed (1% by weight) IV with ESBP2 or ESBP3 daily at 10 mg/mL (~3 mM). Rat blood samples were collected daily prior to injection via tail vein. Post 10 days of treatment, animals were allowed to recover for 10 days and then sacrificed. Plasma was stored and analyzed as above. The body weight was recorded every day prior to the blood collection.

[4] = Subcutaneous bolus biocompatibility; type: in vivo, rat (female Wistar)
Procedure: The peptide hydrogel was prepared at 10 mg/mL in sterile saline and aspirated in sterile 1 mL syringes, with careful attention to avoid air bubbles. Female Wistar rats (225–250 g, 8–12 weeks old) were used for dorsal subcutaneous implantation. The rats were anesthetized using 2.5% isoflurane and […], after which the back of the rat’s hair was shaved and sterilized with 3 alternating applications of isopropanol and betadine. 200 µL boluses of the peptide hydrogel were injected with a 25 G needle at n = 4 for a time point of 7 days. After the time point, the animals were sacrificed, and the implant regions were collected and fixed overnight in 10% buffered formalin. The Rutgers Cancer Institute of New Jersey histology core processed the paraffin-embedded samples for histological evaluation after staining with hematoxylin and eosin and Masson’s Trichrome. Samples were also fixed in glutaraldehyde and formaldehyde, processed to eponate blocks, and sectioned with an ultramicrotome for electron microscopy imaging (above)[30],[76],[87].
as §1

[5] = Ultracentrifugation pellet / solid-state NMR of assemblies; type: physicochemical; conditions: 10 mg/mL, 150,000 RCF, 30 minutes, 4 °C
Procedure: To experimentally validate E1:ESBP3 peptide mixtures, solid-state NMR experiments were pursued. ^13C solid-state NMR measurements were conducted using cross-polarization magic angle spinning (^1H-^13C CPMAS) to evaluate sample structural order and structural differences between samples. The peptides were not isotopically enriched, so the ^13C signal was from the 1% natural abundance for ^13C.
After peptide dissolution at 10 mg/mL, the samples were concentrated by ultracentrifugation for 30 minutes in Bruker 3.22 mm NMR rotors at 4 °C and 150,000 RCF in Ultra-clear tubes of SW-41 Ti swinging bucket rotor fitted onto a Beckman Optima XPN-100 centrifuge. A 11.75 T magnet Bruker Avance III HD 500 spectrometer (500 MHz, ^1H NMR Larmor frequency) equipped with a room temperature 3.2 mm Bruker Low-E ^1H/^13C/^15N NMR probe was used for measurements. ^13C chemical shift referencing was conducted using adamantane referenced to tetramethylsilane. 1D ^13C cross-polarization magic angle spinning (CPMAS) spectra were collected using the standard Bruker cp pulse sequence. A 10 kHz magic angle spinning speed was used for all samples. The channels frequency for the optimization of the Hartmann-Hahn condition for ^1H and ^13C are 500.133 MHz and 125.771 MHz, respectively. A recycle delay time of 4 seconds (d1) and dwell time of 5 μs (DW) were used. Acquisition time was set to 10.24 ms. […]

[6] = biological target: SARS-CoV-2 Spike-RBD (Severe acute respiratory syndrome coronavirus 2, UniProt P0DTC2); type: binding

In the case of CC[C@H](C)[C@H](NC(=O)[C@H](Cc1ccc(O)cc1)NC(=O)[C@@H](NC(=O)[C@H](CCCCN)NC(=O)[C@H](Cc1ccc(O)cc1)NC(=O)[C@H](CCC(N)=O)NC(=O)CNC(=O)[C@H](CCC(=O)O)NC(=O)[C@H](CC(C)C)NC(=O)[C@H](CO)NC(=O)[C@H](CC(C)C)NC(=O)[C@H](CO)NC(=O)[C@H](CC(C)C)NC(=O)[C@H](CO)NC(=O)[C@H](CC(C)C)NC(=O)[C@H](CO)NC(=O)[C@H](CC(C)C)NC(=O)[C@H](CO)NC(=O)[C@H](CC(C)C)NC(=O)[C@H](CO)NC(=O)[C@H](CCC(=O)O)NC(C)=O)[C@@H](C)O)C(=O)N[C@@H](CC(=O)O)C(=O)N[C@@H](CCCCN)C(=O)N[C@@H](CC(N)=O)C(=O)N[C@@H](CC(N)=O)C(=O)N[C@@H](Cc1c[nH]cn1)C(=O)N[C@@H](Cc1ccc(O)cc1)C(=O)N[C@@H](C)C(=O)N[C@@H](CCC(=O)O)C(=O)N[C@@H](CC(=O)O)C(=O)N[C@@H](CCC(=O)O)C(=O)N[C@@H](CCCNC(=N)N)C(=O)N[C@@H](Cc1ccc(O)cc1)C(=O)N[C@@H](CCCCN)C(N)=O [ESBP3] (Ac-ESLSLSLSLSLSLEGQYKTYIDKNNHYAEDERYK-NH2), the “intranasal repeat dosing safety, in words” value [1] is reported as “no significant body weight changes or adverse organ morphology; also recorded: nasal turbinate showing no adverse effects; also recorded: no adverse toxicity”, the “stability of lyophilized peptide, in words” value ([2]; -20 °C, 4 °C, 25 °C and 37°C over 10 weeks, HPLC/LC-MS) is reported as “exceptional” and the “stability, in words” value ([2]; lyophilized form and in formulation at a variety of temperatures over 12 weeks, HPLC) is reported as “excellent stability”. For the same compound, the “degradation in aqueous formulation, in words” value ([2]; over 10 weeks, LC-MS) was “minimal”, the “repeat IV dosing safety, in words” value ([3]; daily IV for 10 days, ~1 w% (10 mg/mL), 225-250 g adult rats) was “no adverse effect” and the “significant changes in body weight (ESBP3 also animal behavior, adverse events, gross organ morphology) compared to carrier” value ([3]; daily repeated IV dosing for 10 days, rats) was “no”. For the same compound, the “peptide in plasma after subcutaneous bolus” value ([4]; 200 µL, 10 mg/mL, once, daily blood draws for 10 days) was “no detectable ESBP3”, the “subcutaneous bolus tolerability, in words” value ([4]; 200 µL, 10 mg/mL, once, rats, daily blood draws for 10 days) was “no significant body weight changes or adverse organ morphology; also recorded: no weight loss or adverse event” and the “histology of Sub-Q implanted boluses (H&E, Masson's Trichrome)” value ([4]; 7 days) was “infiltration of boluses with neutrophils/ macrophages”. The “ultracentrifuge pellet (assembly into nanofibers)” value [5] was “no pellet”, the “ITC binding to Spike RBD, in words” value [6] was “ESBP3-Spike-binding events” and the “ITC self-assembly, in words” value [6] was “supported spontaneous self-assembly”.
